Experimental data taken from PubChem BioAssay (NCI).
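Test compounds were applied to cells in 96-well plates for 48 hours at 5 doses. GI50 is the concentration that inhibits growth by half. At the TGI there is no net growth.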

Legend:
Experiment in all cases: NCI-60 cell line screen, 48 h
CAKI-1 renal = test system: CAKI-1 renal
PC-3 prostate = test system: PC-3 prostate
SR leukemia = test system: SR leukemia
SF-268 CNS = test system: SF-268 CNS
MCF7 breast = test system: MCF7 breast
UO-31 renal = test system: UO-31 renal
OVCAR-8 ovarian = test system: OVCAR-8 ovarian
HS 578T breast = test system: HS 578T breast
A549 NSCLC = test system: A549 NSCLC
MALME-3M melanoma = test system: MALME-3M melanoma
HCT-116 colon = test system: HCT-116 colon
SNB-75 CNS = test system: SNB-75 CNS
OVCAR-3 ovarian = test system: OVCAR-3 ovarian
NCI-H23 lung = test system: NCI-H23 lung
OVCAR-5 ovarian = test system: OVCAR-5 ovarian
HOP-92 NSCLC = test system: HOP-92 NSCLC
OVCAR-4 ovarian = test system: OVCAR-4 ovarian
TK-10 renal = test system: TK-10 renal
A498 renal = test system: A498 renal
UACC-257 melanoma = test system: UACC-257 melanoma
DU-145 prostate = test system: DU-145 prostate
ACHN renal = test system: ACHN renal
K-562 leukemia = test system: K-562 leukemia
IGROV1 ovarian = test system: IGROV1 ovarian
M14 melanoma = test system: M14 melanoma
T-47D breast = test system: T-47D breast
UACC-62 melanoma = test system: UACC-62 melanoma
CCRF-CEM leukemia = test system: CCRF-CEM leukemia

## Cc1ccc(-n2c(-c3cc4c([nH]c5ccccc54)c(-c4cccc(O)c4)n3)n[nH]c2=S)cc1
CAKI-1 renal
  GI50: 1730 nM
  TGI: 4900 nM
PC-3 prostate
  GI50: 2480 nM
  TGI: 42400 nM
SR leukemia
  GI50: 443 nM
  TGI: 2070 nM
SF-268 CNS
  GI50: 1320 nM
  TGI: 10600 nM
MCF7 breast
  GI50: 1800 nM
  TGI: 10500 nM
UO-31 renal
  GI50: 2560 nM
  TGI: 15000 nM
OVCAR-8 ovarian
  GI50: 442 nM
  TGI: 3670 nM
HS 578T breast
  GI50: 1740 nM
  TGI: 36200 nM
A549 NSCLC
  GI50: 2340 nM
  TGI: 10400 nM
MALME-3M melanoma
  GI50: 2570 nM
  TGI: 17600 nM
HCT-116 colon
  GI50: 384 nM
  TGI: 10000 nM
SNB-75 CNS
  GI50: 1340 nM
  TGI: 6170 nM
OVCAR-3 ovarian
  GI50: 399 nM
  TGI: 1860 nM
NCI-H23 lung
  GI50: 1670 nM
  TGI: 9840 nM
OVCAR-5 ovarian
  GI50: 3730 nM
  TGI: 17100 nM
HOP-92 NSCLC
  GI50: 4760 nM
  TGI: 27400 nM
OVCAR-4 ovarian
  GI50: 2230 nM
  TGI: 11000 nM
TK-10 renal
  GI50: 3680 nM
  TGI: 16200 nM
A498 renal
  GI50: 263 nM
  TGI: 738 nM
UACC-257 melanoma
  GI50: 2030 nM
  TGI: 7110 nM
DU-145 prostate
  GI50: 616 nM
  TGI: 6170 nM
ACHN renal
  GI50: 2370 nM
  TGI: 15400 nM
K-562 leukemia
  GI50: 523 nM
  TGI: > 100000 nM
IGROV1 ovarian
  GI50: 704 nM
  TGI: 4740 nM
M14 melanoma
  GI50: 1100 nM
  TGI: 3710 nM
T-47D breast
  GI50: 1800 nM
  TGI: 11900 nM
UACC-62 melanoma
  GI50: 491 nM
  TGI: 2570 nM
CCRF-CEM leukemia
  GI50: 682 nM
